Experiment [1] has as its system MDA-MB-231 (breast). Description: In vitro cytotoxic activity (MTT) assay, MDA-MB-231. Type of experiment: cell-based. The conditions noted are these: Homo sapiens; MDA-MB-231 cells, exposed for 96 hours, 50% inhibition of cell proliferation; read-out: Cytotoxicity activity IC50, MDA-MB-231 (breast). The procedure: (§1) In Vitro Cytotoxic Activity Assay
(§2) Compounds 1-16 were screened for their in vitro cytotoxic activity utilizing a 3-(4,5-dimethyl-thiazol-2-yl)-2,5-diphenyltetrazolium bromide (MTT) assay against selected cancer human cell lines consisting of PC3 (prostate), HCT116 (colon), A375 (melanoma), H1299 (lung), MIAPaCa-2 (pancreas), HL60 (leukemia), MCF7 (breast), MDA-MB-231 (breast) (T. Mosmann, J. Immunol. Meth., 1983, 65, 55-63). The cells were cultured at 37° C. in RMPI1640 medium supplemented with 10% fetal bovine serum, 50 IU/mL penicillin, and 50 μg/mL streptomycin in a 5% CO2 incubator. All cells were sub-cultured 3 times/week by trypsinisation. Viable cells were seeded and allowed to adhere for 12 hours before a test drug was added in 96-well plates at an initial density of 1.0×10^5 cells/mL. Tumor cell lines were separately exposed to various concentrations of the tested compounds followed by incubation at a temperature of 37° C. during 96 hours inside a medium of fresh RMPI 1640. Cells were subsequently incubated at 37° C. using MTT at 0.5 mg/mL during 4 hours. After removal of supernatant, formazan crystals were dissolved in isopropanol and the optical density was measured at 570 nm. CX-4945 was used as a positive control.

The test system of experiment [2] is A375 (melanoma). Description: In vitro cytotoxic activity (MTT) assay, A375. The format is cell-based. The note with it: Homo sapiens, A-375; A375 cells, exposed for 96 hours, 50% inhibition of cell proliferation; read-out: Cytotoxicity activity IC50, A375 (melanoma). How it is done:
as §1, §2

For experiment [3], the system named is HCT116 (colon). Kind of experiment: In vitro cytotoxic activity (MTT) assay, HCT116. Type of experiment: cell-based. The conditions noted are these: Homo sapiens, HCT-116; HCT116 cells, exposed for 96 hours, 50% inhibition of cell proliferation; read-out: Cytotoxicity activity IC50, HCT116 (colon). The procedure: as §1, §2
Experiment [4] concerns H1299 (lung). Kind of experiment: In vitro cytotoxic activity (MTT) assay, H1299. Type of experiment: cell-based. The note with it: Homo sapiens, NCI-H1299; H1299 cells, exposed for 96 hours, 50% inhibition of cell proliferation; read-out: Cytotoxicity activity IC50, H1299 (lung). How it is done: as §1, §2
In experiment [5] the test system is MIAPaCa-2 (pancreas). Description: In vitro cytotoxic activity (MTT) assay, MIAPaCa-2. The note with it: Homo sapiens, MIA PaCa-2; MIAPaCa-2 cells, exposed for 96 hours, 50% inhibition of cell proliferation; read-out: Cytotoxicity activity IC50, MIAPaCa-2 (pancreas). Type of experiment: cell-based. How it is done:
as §1, §2

Experiment [6] deals with MCF7 (breast). Description: In vitro cytotoxic activity (MTT) assay, MCF7. Type of experiment: cell-based. The conditions noted are these: Homo sapiens; MCF7 cells, exposed for 96 hours, 50% inhibition of cell proliferation; read-out: Cytotoxicity activity IC50, MCF7 (breast). The procedure: as §1, §2
For experiment [7], the target named is T1, recombinant human CK2 (RRββ-holoenzyme) (Homo sapiens, UniProt P68400).
T1 construct: purchased Millipore
T1 sequence (P68400 whole entry): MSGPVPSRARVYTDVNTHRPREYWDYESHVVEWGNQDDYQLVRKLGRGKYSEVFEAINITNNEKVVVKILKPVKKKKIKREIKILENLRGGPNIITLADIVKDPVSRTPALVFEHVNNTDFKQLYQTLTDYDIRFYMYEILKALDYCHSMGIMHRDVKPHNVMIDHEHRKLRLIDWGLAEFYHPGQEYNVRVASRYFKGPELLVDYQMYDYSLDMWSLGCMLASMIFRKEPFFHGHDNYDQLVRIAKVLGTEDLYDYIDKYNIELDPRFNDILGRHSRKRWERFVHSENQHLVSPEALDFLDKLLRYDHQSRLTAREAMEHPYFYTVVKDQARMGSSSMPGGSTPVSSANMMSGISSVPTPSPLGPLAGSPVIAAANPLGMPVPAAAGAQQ
T1 sequence (P67870 whole entry partner): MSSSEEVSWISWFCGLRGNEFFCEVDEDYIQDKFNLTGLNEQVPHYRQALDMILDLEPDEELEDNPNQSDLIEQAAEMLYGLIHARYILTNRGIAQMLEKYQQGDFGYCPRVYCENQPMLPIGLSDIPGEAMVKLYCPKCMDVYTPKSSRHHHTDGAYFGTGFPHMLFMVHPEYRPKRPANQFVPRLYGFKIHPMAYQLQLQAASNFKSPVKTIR
Description: CK2 Kinase Assay (33P-ATP, filter plate). Type of experiment: biochemical. The note with it: recombinant human CK2, final ATP concentration 15 μM, 10 min at 30° C.; read-out: protein kinase CK2 IC50. The procedure:
Evaluation of Inhibitory Activity on Protein Kinase CK2
CK2 Kinase Assay was conducted using the protocol as described in Pierre F. et al; J. Med. Chem. 2011, 54, 635-654. The tested compounds in aqueous solution were added at a volume of 10 μL to a reaction mixture comprising 10 μL of assay dilution buffer (ADB; 20 mM MOPS, pH 7.2, 25 mM β-glycerol phosphate, 5 mM EGTA, 1 mM sodium orthovanadate, and 1 mM dithiothreitol), 10 μL of substrate peptide (RRRDDDSDDD, dissolved in ADB at a concentration of 1 mM), 10 μL of recombinant human CK2 (RRββ-holoenzyme, 25 ng dissolved in ADB; Millipore). Reactions were initiated by the addition of 10 μL of ATP solution (90% 75 mMMgCl2, 75 μM ATP (final ATP concentration: 15 μM) dissolved in ADB; 10% [γ-33P] ATP (stock 1mCi/100 μL; 3000 Ci/mmol (Perkin-Elmer) and maintained for 10 min at 30° C. The reactions were quenched with 100 μL of 0.75% phosphoric acid and then transferred to and filtered through a phosphor cellulose filter plate (Millipore). After washing each well five times with 0.75% phosphoric acid, the plate was dried under vacuum for 5 min and, following the addition of 15 μL of scintillation fluid to each well, the residual radioactivity was measured using a Wallac luminescence counter. The IC50 values were derived from eight concentrations of test inhibitors.

Experiment [8] deals with HL60 (leukemia). Kind of experiment: In vitro cytotoxic activity (MTT) assay, HL60. The note with it: Homo sapiens, HL-60; HL60 cells, exposed for 96 hours, 50% inhibition of cell proliferation; read-out: Cytotoxicity activity IC50, HL60 (leukemia). Type of experiment: cell-based. How it is done:
as §1, §2

For experiment [9], the system named is PC3 (prostate). Kind of experiment: In vitro cytotoxic activity (MTT) assay, PC3. The note with it: Homo sapiens, PC-3; PC3 cells, exposed for 96 hours, 50% inhibition of cell proliferation; read-out: Cytotoxicity activity IC50, PC3 (prostate). Type of experiment: cell-based. How it is done:
as §1, §2

For the compound `Clc1cccc(Nc2nc3cnccc3c3nn4cnccc4c23)c1` [Compound 1, N-(3-chlorophenyl)pyrimido[1′,6′:1,5]pyrazolo[4,3-c][1,7]naphthyridin-6-amine], the IC50 in [1] turned out to be 4800 nM; in experiment [2] it was 3200 nM; in experiment [3], 1500 nM; in [4], 2600 nM; in experiment [5], 1300 nM; in experiment [6], 5700 nM. Besides, the IC50 worked out at 47 nM in experiment [7], 4400 nM in experiment [8] and 1700 nM in experiment [9].
